What was measured:
[1] = molecular target: Bromodomain-containing protein 4 (Homo sapiens, UniProt O60885); experiment: Binding affinity to BRD4 (unknown origin) expressed in Escherichia coli BL21 after 1 hr by proprietary competition assay
[2] = molecular target: Serine/threonine-protein kinase PLK1 (Homo sapiens, UniProt P53350); experiment: Binding affinity to PLK1 (unknown origin) expressed in HEK293 cells after 1 hr by proprietary competition assay; type: cell-based
MV4-11 = experiment: Cytotoxicity against human MV4-11 cells after 24 hrs by CellTiter-Blue assay; type: functional; settings: MV4-11, 24 h

Serine/threonine-protein kinase PLK1, sequence (P53350 whole entry): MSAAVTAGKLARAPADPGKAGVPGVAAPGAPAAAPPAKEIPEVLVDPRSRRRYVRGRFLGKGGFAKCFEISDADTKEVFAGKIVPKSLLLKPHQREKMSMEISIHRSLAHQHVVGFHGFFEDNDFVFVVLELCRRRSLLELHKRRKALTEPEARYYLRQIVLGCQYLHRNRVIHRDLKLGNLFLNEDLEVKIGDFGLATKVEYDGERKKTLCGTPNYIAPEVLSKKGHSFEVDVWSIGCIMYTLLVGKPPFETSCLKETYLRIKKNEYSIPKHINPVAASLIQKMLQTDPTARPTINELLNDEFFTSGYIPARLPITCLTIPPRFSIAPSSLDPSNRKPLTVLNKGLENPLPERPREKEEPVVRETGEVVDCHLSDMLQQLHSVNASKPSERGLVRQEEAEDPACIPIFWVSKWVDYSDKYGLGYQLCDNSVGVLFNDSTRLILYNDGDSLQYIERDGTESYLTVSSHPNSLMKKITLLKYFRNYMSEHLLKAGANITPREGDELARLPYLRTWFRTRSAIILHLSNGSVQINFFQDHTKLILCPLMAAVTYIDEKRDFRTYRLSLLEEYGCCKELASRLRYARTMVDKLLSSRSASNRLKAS

| SMILES | Ki [1] | Ki [2] | GI50 (MV4-11) |
| --- | --- | --- | --- |
| CC[C@@H]1C(=O)N(C)c2cnc(Nc3ccc(C(=O)NC4CCN(C)CC4)cc3OC)nc2N1Cc1cccc(Br)c1 | 8.7 nM | 5.8 nM | 675 nM |
| CC[C@@H]1C(=O)N(CC)c2cnc(Nc3ccc(C(=O)NC4CCN(C)CC4)cc3OC)nc2N1C1CCCC1 | 470 nM | 0.91 nM | 392 nM |
| CC[C@@H]1C(=O)N(C)c2cnc(Nc3ccc(C(=O)NC4CCN(C)CC4)cc3OCC(C)C)nc2N1C1CCCC1 | 29 nM |  | 154 nM |
| CC[C@H]1C(=O)N(C)c2cnc(Nc3ccc(C(=O)NC4CCN(C)CC4)cc3OC)nc2N1C1CCCC1 |  |  | 19 nM |
| CC[C@@H]1C(=O)Nc2cnc(Nc3ccc(C(=O)NC4CCN(C)CC4)cc3OC)nc2N1C1CCCC1 | 7950 nM |  | 219 nM |
| CC[C@@H]1C(=O)N(C)c2cnc(Nc3ccc(C(=O)NC4CCN(C)CC4)cc3OCc3ccccc3)nc2N1C1CCCC1 | 100 nM |  | 356 nM |
| CC[C@@H]1C(=O)N(CC(C)C)c2cnc(Nc3ccc(C(=O)NC4CCN(C)CC4)cc3OC)nc2N1C1CCCC1 | > 10000 nM |  | 2530 nM |
| CC[C@@H]1C(=O)N(Cc2ccccc2)c2cnc(Nc3ccc(C(=O)NC4CCN(C)CC4)cc3OC)nc2N1C1CCCC1 | > 10000 nM |  | 7280 nM |
| Cc1sc2c(c1C)C(c1ccc(Cl)cc1)=N[C@@H](CC(=O)OC(C)(C)C)c1nnc(C)n1-2 |  |  | 80 nM |
| CC[C@@H]1C(=O)N(C(C)C)c2cnc(Nc3ccc(C(=O)NC4CCN(C)CC4)cc3OC)nc2N1C1CCCC1 | 4500 nM |  | 2670 nM |
| COc1cc(C(=O)NC2CCN(C)CC2)ccc1Nc1ncc2c(n1)N(C1CCCC1)[C@H](Cc1ccccc1)C(=O)N2C | > 10000 nM | 4.2 nM | 1870 nM |
| CC[C@@H]1C(=O)N(C)c2cnc(Nc3ccc(C(=O)NC4CCN(C)CC4)cc3OC3CCCC3)nc2N1C1CCCC1 | 27 nM | 0.84 nM | 240 nM |
| CC[C@@H]1C(=O)N(C)c2cnc(Nc3ccc(C(=O)NC4CCN(C)CC4)c(OC)c3)nc2N1C1CCCC1 | 37 nM | 0.52 nM | 15 nM |
| CC[C@@H]1C(=O)N(C)c2cnc(Nc3ccc(C(=O)NC4CCN(C)CC4)cc3F)nc2N1C1CCCC1 | 46 nM |  | 4 nM |
| CC[C@@H]1C(=O)N(C)c2cnc(Oc3ccc(C(=O)NC4CCN(C)CC4)cc3OC)nc2N1C1CCCC1 | 99 nM | 240 nM | 1340 nM |
| CC[C@@H]1C(=O)N(C)c2cnc(Nc3ccc(C(=O)NC4CCN(C)CC4)cc3)nc2N1C1CCCC1 | 60 nM |  | 3 nM |
| C[C@@H](Oc1cc(-n2cnc3ccc(CN4CCN(C)CC4)cc32)sc1C(N)=O)c1ccccc1C(F)(F)F [GSK-461364] |  |  | 679 nM |
| COc1cc(C(=O)NC2CCN(C)CC2)ccc1Nc1ncc2c(n1)N(C1CCCC1)CC(=O)N2C | 1400 nM |  | 219 nM |
| CC[C@@H]1C(=O)N(C)c2cnc(Nc3ccc(C(=O)NC4CCN(C)CC4)cc3OC)nc2N1CC(C)C | 970 nM | 6.95 nM | 40 nM |
| CC[C@@H]1C(=O)N(C)c2cnc(Nc3ccc(C(=O)NC4CCN(C)CC4)cc3OC)nc2N1C1CCCC1 [BI-2536] |  |  | 15.2 nM |
